The data set can be described thus: Toxicity of the inducer doxycycline in mice. The data set is classed as in vivo, BALB/c mice. The conditions noted are these: 200 mg/kg dox i.p.; also seen in control mice without vector. The method, then: In view of the fact that the luciferase activity levels obtained in the induced state were very low, the decision was made to increase the dose of inducer. To this end, two consecutive doses of 100 and 200 mg/kg of dox were administered by i.p. route, separated by a 14-day period.
The luciferase activity in the hepatic area was measured at 24 hours post-induction. […] These symptoms were also observed in the control mice, those without a vector. The system's maximum rate of induction is reached at a dose of 100 mg/kg of dox, and is approximately 10-fold.

Regarding `C[C@H]1c2cccc(O)c2C(=O)C2=C(O)[C@]3(O)C(=O)C(C(N)=O)=C(O)[C@@H](N(C)C)[C@@H]3[C@@H](O)[C@@H]21` [dox, doxycycline], the dox-mediated toxicity entry was “several mice died”.

For the origin of these results see patent publication US20120225933A1, “REGULATED EXPRESSION SYSTEMS” (priority 2009, published 2012).
